Laboratory results reported in patent US20120071469A1 (priority 2009, published 2012).
Counter-ions that a name gives are not always drawn.

Biological target: α7-subtype of nicotinic receptors (Rattus norvegicus, UniProt Q05941)
Assay: biochemical
Assay type: binding

α7-subtype of nicotinic receptors, sequence (Q05941 23-502): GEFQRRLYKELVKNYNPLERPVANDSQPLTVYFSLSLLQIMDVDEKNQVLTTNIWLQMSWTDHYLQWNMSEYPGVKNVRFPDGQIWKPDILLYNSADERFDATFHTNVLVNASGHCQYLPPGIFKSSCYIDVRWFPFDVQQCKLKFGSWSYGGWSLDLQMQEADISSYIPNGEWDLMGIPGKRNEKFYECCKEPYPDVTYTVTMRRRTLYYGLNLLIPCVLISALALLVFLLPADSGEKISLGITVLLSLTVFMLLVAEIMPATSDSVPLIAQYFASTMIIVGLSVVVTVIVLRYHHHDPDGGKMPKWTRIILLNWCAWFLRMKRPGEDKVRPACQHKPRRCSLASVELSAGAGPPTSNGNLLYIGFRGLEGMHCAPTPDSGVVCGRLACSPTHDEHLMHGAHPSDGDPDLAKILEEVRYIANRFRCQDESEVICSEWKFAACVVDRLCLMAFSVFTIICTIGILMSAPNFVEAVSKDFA

c1cc2c(cc1-c1nnc(N3CCN4CCC3C4)o1)OCO2 (stereo not shown) [Compound I, 4-(5-Benzo[1,3]dioxol-5-yl-[1,3,4]oxadiazol-2-yl)-1,4-diaza-bicyclo[3.2.1]octane fumaric acid salt]
IC50: < 0.1 µM
